Experimental data as given in patent US9765297B2, “Stem cell-based culture system for drug development” (THE TRUSTEES OF COLUMBIA UNIVERSITY IN THE CITY OF NEW YORK, priority 2007, dated 2017).
“Also recorded” adds a separate entry of the source. Where a SMILES comes first, the peptide text is derived from it. The star is where a group is joined. Cbz = O=C(OCc1ccccc1)*; CH2F = FC*

Legend:
[1] = tested on: motor neurons on mutant SOD1 astrocyte layer; assay: Motor neuron / mutant SOD1 astrocyte co-cultures incubated with CNQX or Fas-Fc (FIG. 11c,d); format: cell-based, mouse; conditions: 100 μM CNQX
Method: FIG. 11a-e. Glutamate, Fas ligand and several major cytokines and chemokines are not involved in the toxicity of mutant SOD1 astrocytes to motor neurons. […] (b) 14 d-old-confluent ^NTgAML or ^G93AAML were incubated with 200 μM of glutamate. Then, the extracellular concentration of glutamate was monitored by HPLC at 0, 0.5, 1, 3, 6 and 24 hr. No interaction was found between the timing of glutamate decrease in the medium and the genotypes of the two astrocyte layers (F[2.241]=0.430; P=0.826; ANOVA). […] (e) The relative contents of 19 cytokines/chemokines were screened by array in CMd from G93A and NTg astrocytes. The genotypic differences were highlighted in bold. […]
Results are expressed as mean±standard error of the mean (s.e.m.) for 3-6 independent experiments. […] Each coverslip was counted at ×100 under fluorescent examination in its entirety. To determine the proportion of dying or apoptotic neurons, ≧750 MAP2^+ neurons were counted per culture. Differences between means were analyzed by a two-tailed Student's t-test whereas among means by one- or two-way ANOVA with the different types of mice, treatment doses, or time as the independent factors. […] For morphometry studies, differences were analyzed by Kolmogorov-Smimov test (www.physics.csbsju.edu/stats/KS-test.n.plot_form.html). […]

ESMN plated on G93A AML = assay: Co-culture of embryonic stem cell-derived motor neurons (ESMN) on mutant SOD1 G93A astrocyte monolayers with pharmacological treatment; survival and death counted at 7 d; format: cell-based, mouse; conditions: 7 d post-plating, V5 50-200 μM, zVAD-fmk 10-20 μM; for percentages of surviving ESMN: ESMN on G93A AML, vs vehicle; for percentages of ESMN / MAP2+ neurons labeled with EthD (dying cells) / percentages of embryonic stem cell-derived MAP2+/fractin+ neurons (apoptosis): G93A AML co-cultures, vs vehicle (DMSO), added daily
Method: Glial monolayers were prepared from spinal cord from transgenic SOD^G93A, SOD^G37R, SOD^G85R, SOD^WT of newborn pups as described by Silva and collaborators^31. Cell suspensions were plated in glial medium: Dubelco Modified Eagle's medium (DMEM; Invitrogen, Carlsbad, Calif.) containing 10% fetal bovine serum (FBS; Invitrogen), 100 U/mL penicillin and 100 μg/mL streptomycin (penicillin/streptomycin, Invitrogen). After 2 weeks, glial cultures contained 95% of glial acidic fibrillary protein (GFAP)^+ astrocytes, 5% of CD11b^+ microglia, and no neuron or oligodendrocyte as indicated by the lack of respectively MAP2 or 2′-3′-cyclic nucleotide phosphohydrolase immunoreactivity (data not shown). To eliminate residual microglia, 2-week-old flasks were agitated (200 rpm; 6 h) and astrocytes were detached by 0.25% trypsin (Invitrogen) and plated onto coverslips at a density of 20,000 cells/cm^2.
Cells were derived from Hlxb9-GFP1Tmj transgenic mice^13 and differentiated into ESMN as described previously^13. To form EBs, cells were grown for 2 d in 1:1 (v/v) DMEM/Ham's F-12 media (Invitrogen) medium containing B27 supplement (Invitrogen), penicillin/streptomycin and 0.1 mM β-mercaptoethanol (Sigma, Saint Louis, Mo.). They were treated with 1 μM retinoic acid (Sigma) and 400 nM sonic hedgehog agonist (Hh-Ag1.3, Curls Inc., Cambridge, Mass.) for 5 d and dissociated with papain (Worthington, Lakewood, N.J.). Cells were plated at 1,600 eGFP-positive cells/cm^2 in motor neuron medium: Neurobasal medium (Invitrogen) containing 2% horse serum (heat inactivated; Invitrogen), B27 supplement, 0.5 mM glutamine (Invitrogen), 25 μM β-mercaptoethanol, penicillin/streptomycin. To obtain LH2-positive neurons, once EBs were formed they were treated with 0.1 μM retinoic acid and 15 ng/mL bone morphogenetic protein 4 (R&D systems, Minneapolis, Minn.) for 5 d before papain dissociation. Then, 1,500 cells/cm^2 were plated onto astrocyte monolayer in motor neuron medium.
For EthD (Molecular Probes) estimation of death, cells were incubated with 2 μM EthD (diluted in D-PBS; 45 min; RT) as we previously reported^36. For immunocytochemistry and the other cell labelings, cells were processed as we previously described^36. Primary antibodies used were: rabbit polyclonal anti-eGFP (1:2000; Molecular Probes), anti-fractin (1:5000; BD Pharmingen, San Jose, Calif.), GABA (1:2000; Chemicon), anti-Lim2 (1:150; from Dr. Jessell's lab), and anti-HB9 (1:1000 from T M Jessell's lab); goat polyclonal anti-ChAT (1:100; Chemicon, Temecula, Calif.); sheep polyclonal anti-SOD1 (1:500; Calbiochem), rabbit anti-protein gene product 9.5 (PG-P 9.5; 1:2000; Chemicon) and mouse monoclonal anti-MAP-2 (1:1000; Chemicon), anti-GFAP (1:1000; Sigma), anti-Islet 1/2 (1:100; from TM Jessell's lab), anti-LH2 (1:2; from T M Jessell's lab), and anti-SMI-32 for non-phosphorylated neurofilament heavy chain (1:1000, Sternberger monoclonals, Lutherville, Md.). Terminal deoxy-UTP nick-end labeling (Tunel, in situ cell death detection kit, Roche Diagnostic, Indianapolis, Ind.) were performed following the manufacturer's recommendations.
zVAD-fmk and V5 (Sigma) were dissolved in DMSO and add to co-cultures to final concentrations ranging from 10-20 μM for the former and 50-200 μM for the latter. Fresh drugs were added daily. Cell survival and death were evaluated at 7 d by counting eGFP^+/HB9^+ neurons, and EthD- and fractin-labeled cells as described below.
Results are expressed as mean±standard error of the mean (s.e.m.) for 3-6 independent experiments. Each experiment corresponds ≧3 transgenic and non-transgenic co-cultures from the same litter and 3 coverslips per time point and per condition. Each coverslip was counted at ×100 under fluorescent examination in its entirety. To determine the proportion of dying or apoptotic neurons, ≧750 MAP2^+ neurons were counted per culture. […]

Compound | mutant SOD1 astrocyte-mediated motor neuron death [1] | percentages of surviving ESMN (ESMN plated on G93A AML) | percentages of surviving ESMN (ESMN plated on G93A AML; listed as zVAD.fmk) | percentages of ESMN / MAP2+ neurons labeled with EthD (dying cells) (ESMN plated on G93A AML) | percentages of embryonic stem cell-derived MAP2+/fractin+ neurons (apoptosis) (ESMN plated on G93A AML)
N#Cc1cc2[nH]c(=O)c(=O)[nH]c2cc1[N+](=O)[O-] [CNQX] | did not influence | – | – | – | –
COC(=O)C[C@H](NC(=O)[C@H](C)NC(=O)[C@@H](NC(=O)OCc1ccccc1)C(C)C)C(=O)CF [zVAD-fmk] (Cbz-Val-Ala-Asp(OMe)-CH2F) | – | failed to improve | had no effect | had no effect | decreased
VPMLK [V5] | – | augmented; also recorded: increases | – | diminished; also recorded: decreases | reduced specifically; also recorded: decreases; also recorded: inhibited apoptosis
